Experimental data as given in paper PMC11939078, “TAK-994 mechanistic investigation into drug-induced liver injury” (Toxicological Sciences, 2025).
Like-named read-outs stand apart in the source and are kept apart here.

Key:
[1] = HepG2 Glu/Gal 24-h cytotoxicity (mitochondrial toxicity); assay type: cell-based, human; conditions: human, HepG2 cells
Experimental: (§1) Cytotoxicity of TAK-994 was evaluated in glucose or galactose medium after 24 h and in glucose medium after 72 h in HepG2 cells, with cryopreserved HepG2 cells thawed and seeded onto assay plates at 5,000 cells/well in glucose or galactose medium for the 24-h assay and at 2,500 cells/well in glucose medium for the 72-h assay. After ∼24 h of incubation at 37 °C in 5% CO2, the cells were incubated with test solutions under the same conditions for 24 h for the plate with 5,000 cells/well or 72 h for the plate with 2,500 cells/well. Cytotoxicity of TAK-994 was also assessed using HepG2 cells with CYP3A4 overexpression using a lentivirus vector. HepG2/CYP3A4 cells were incubated in media containing TAK-994 (0.09 to 200 μM), positive control aflatoxin B1 (0.04 to 80 μM), or 1.0% DMSO (negative control). In both cytotoxicity assays, adenosine triphosphate (ATP) content was assessed after incubation using a commercial luminescence assay (CellTiter-Glo; Promega Co., Ltd, WI, United States).
HepG2 cells (American Type Culture Collection [ATCC, VA, USA]) were acclimated to Dulbecco's Modified Eagle Medium (DMEM; Thermo Fisher Scientific, MA, USA) with either high glucose or high galactose and containing 10% FBS for 1 week then cryopreserved. […] After the incubation, CellTiter-Glo® (Promega Co., Ltd., WI, USA) was added to the assay plates, cells were incubated for 30 minutes, and luminescence was recorded to measure the ATP content using an EnVision plate reader (PerkinElmer Co., Ltd., MA, USA). The test compound TAK-994 was evaluated at concentrations of 0.046, 0.14, 0.41, 1.2, 3.7, 11, 33, and 100 μM. Positive controls rotenone and staurosporine were purchased from FUJIFILM Wako Pure Chemical Corporation (Osaka, Japan) and evaluated at concentrations of 0.046, 0.14, 0.41, 1.2, 3.7, 11, 33, and 100 μM in DMSO (rotenone) or 0.0046, 0.014, 0.041, 0.12, 0.37, 1.1 , 3.3, and 10 μM in DMSO (staurosporine). […]

[2] = HepG2 72-h cytotoxicity assay (glucose medium, ATP content); assay type: cell-based, human; conditions: human, HepG2 cells
Experimental: as §1
HepG2 cells (American Type Culture Collection [ATCC, VA, USA]) were acclimated to Dulbecco's Modified Eagle Medium (DMEM; Thermo Fisher Scientific, MA, USA) with either high glucose or high galactose and containing 10% FBS for 1 week then cryopreserved. The cryopreserved HepG2 cells were thawed, cultured for 24 hours, then seeded at 5000 cells/well in glucose or galactose medium for the 24-hour assay and at 2500 cells/well in glucose medium for the 72-hour assay onto the assay plates. After approximately 24 hours of incubation at 37°C in 5% CO2, the cells were incubated with test solutions under the same conditions for 24 hours for the plate with 5000 cells/well or 72 hours for the plate with 2500 cells/well. After the incubation, CellTiter-Glo® (Promega Co., Ltd., WI, USA) was added to the assay plates, cells were incubated for 30 minutes, and luminescence was recorded to measure the ATP content using an EnVision plate reader (PerkinElmer Co., Ltd., MA, USA). The test compound TAK-994 was evaluated at concentrations of 0.046, 0.14, 0.41, 1.2, 3.7, 11, 33, and 100 μM. Positive controls rotenone and staurosporine were purchased from FUJIFILM Wako Pure Chemical Corporation (Osaka, Japan) and evaluated at concentrations of 0.046, 0.14, 0.41, 1.2, 3.7, 11, 33, and 100 μM in DMSO (rotenone) or 0.0046, 0.014, 0.041, 0.12, 0.37, 1.1 , 3.3, and 10 μM in DMSO (staurosporine). Two experiments were conducted at each concentration.
Inhibition rate (%) = (1-mean of sample values / mean of Max values) × 100, where Max values = vehicle control.

[3] = system: human liver microtissues; assay: Human liver microtissue (co-culture) cytotoxicity, cellular ATP; assay type: cell-based; conditions: for detection of hepatotoxicity by HepG2 72-h / human liver microtissue assays: retrospective application
Experimental: (§2) Toxicology of TAK-994 was assessed using lnSphero’s 3D lnSight Human Liver models, based on N-acetyl-L-cysteine causality assay, glutathione depletion assay, and lipopolysaccharide (LPS)-sensitization assay. Hepatotoxicity was assessed in 7- and 14-day mono and co-culture models, in which cells were exposed to TAK-994 (0.1, 0.3, 1, 3.16, 10, 31.6, or 100 μM) […].
(§3) The test system was Human 3D InSight Liver Models, production ID hLiMT_589, cryopreserved primary human hepatocytes (Lot IPDH_18; single donor) in monoculture or in co-culture with cryopreserved primary human nonparenchymal cells (Lot IPHN_17; single donor). Human liver microtissues are composed of roughly 1000 hepatocytes and 1000 non-parenchymal live cells. Non-parenchymal liver cell fractions are expected to be composed of Kupffer cells and liver endothelial cells however, these were not identified.
The culture medium was 3D InSight Human Liver Maintenance Medium TOX (Catalogue No. CS-07-001, InSphero). The treated cells in 96-well Akura™ plates were incubated in a humidified cell culture incubator (37°C, 5% CO2).
(§4) Mono and co-culture model cells were exposed to TAK-994 (0.1, 0.3, 1, 3.16, 10, 31.6, or 100 μM in 0.5% DMSO) for 7 days (TAK-994 administered on Days 0 and 4) or 14 days (TAK-994 administered on Days 0, 5, and 9). Six replicates were tested for each condition. The vehicle control was 0.5% DMSO, and the positive control was chlorpromazine (0.1, 0.3, 1, 3.16, 10, 31.6, or 100 μM in DMSO). Cellular ATP content was measured in the cell lysate on Days 7 or 14 of treatment. LDH release was measured in the cell supernatant on Days 4 and 7 or on Days 5, 9, and 14 and normalized to lysed controls.
(§5) Intracellular ATP content in model lysates was measured with the CellTiter-Glo® 2.0 Cell Viability Assay (Catalogue No. G9243, Promega). The Bioluminescent LDH Release Toxicity Assay Kit (Catalogue No. J2380, Promega) was used to assess extracellular LDH release and normalized to lysed controls. ATP, LDH, GSH, and triglycerides were measured according to internal technical operating procedures.

[4] = system: human hepatocytes; parameters: method as in Thompson et al. 2012; conditions: ref Thompson et al. 2012; cited from earlier work
[5] = system: human liver microtissues + FFA; assay: Hepatotoxicity in steatosis liver model (free fatty acids); assay type: cell-based; conditions: Homo sapiens, 336 h; free fatty acids added to medium; read-out: IC50, co-culture (14 days) + FFA (Fig. 3A)
Experimental: as §4, with “for” for “for 7 days (TAK-994 administered on Days 0 and 4) or”, “9). The cell culture medium was supplemented with free fatty acids of 100 μM of Oleic acid and 66 μM of Palmitic acid.” for “9).”, “Day” for “Days 7 or”, “Days” for “Days 4 and 7 or on Days”, “controls. Cellular triglyceride content was measured in the microtissues on Day 14.” for “controls.”
as §5

[6] = system: Hepatocyte spheroids; assay: Hepatocyte spheroid (monoculture, no nonparenchymal cells) cytotoxicity, cellular ATP; assay type: cell-based, human; conditions: Homo sapiens, Hepatocyte; cellular ATP; read-out: IC50, hepatocyte spheroids (Fig. 2B)
Experimental: as §2, §3, §4, §5

[7] = system: human liver microtissues; assay: Glutathione depletion (BSO) assay in liver microtissues; assay type: cell-based
Experimental: as §2
Co-culture model cells were pretreated with BSO (150 μM in DMSO) and then exposed to TAK-994 (0.1, 0.3, 1, 3.16, 10, 31.6, or 100 μM in 0.5% DMSO) in the presence and absence of BSO for 14 days (during the treatment period, TAK-994 with or without BSO was administered on Days 0, 5, and 9). Six replicates were tested for each condition. The vehicle control was 0.5% DMSO and the positive control was acetaminophen (0.6, 1.25, 2.5, or 5 mM in Medium TOX). Cellular ATP content was measured in the cell lysate on Day 14 of treatment. LDH release was measured on Days 5, 9, and 14 in the cell supernatant. For cells administered BSO alone, cellular ATP content was also measured on Day 3 and LDH release was also determined between Days 0 to 3. LDH measurements were normalized to lysed controls. Cellular GSH content was measured by GSH-Glo™ Glutathione Assay (Promega) on Days 0, 3, and 14 in the positive control group.
as §5

Cc1cc(OCCCS(C)(=O)=O)cc(C)c1-c1cccc(COc2ccc3c(c2)OC[C@H]3CC(=O)O)c1 [TAK-875]
IC50 at 24 h [1]: > 100 µM
IC50 at 72 h [2]: > 100 µM
IC50 ([3]; read-out: Liver microtissue toxicity for 14 days IC50): 12.7 µM
detection of hepatotoxicity by HepG2 72-h / human liver microtissue assays [3]: detected

Cc1c(C(=O)NN2CCCCC2)nn(-c2ccc(Cl)cc2Cl)c1-c1ccc(Cl)cc1 [rimonabant]
CVB of marketed drugs without high risk of hepatotoxicity [4]: elevated CVB

CN(C)CCCN1c2ccccc2Sc2ccc(Cl)cc21 [Chlorpromazine, chlorpromazine, reference compound]
IC50 [5]: 8.35 µM
IC50 [6]: 9.26 µM
IC50 ([3]; Homo sapiens, 336 h, without FFA, read-out: IC50, co-culture (14 days) (Fig. 3A)): 6.16 µM
IC50 ([3]; Homo sapiens, cellular ATP, read-out: IC50, liver microtissues (Fig. 2B)): 7.64 µM

COc1cccc([C@H]2O[C@H](CC(=O)N3CCC(CC(=O)O)CC3)C(=O)N(CC(C)(C)COC(C)=O)c3ccc(Cl)cc32)c1OC [TAK-475]
IC50 at 24 h [1]: > 100 µM
IC50 at 72 h [2]: > 100 µM
IC50 ([3]; Homo sapiens, 336 h, read-out: Liver microtissue toxicity for 14 days IC50): 58.6 µM
detection of hepatotoxicity by HepG2 72-h / human liver microtissue assays [3]: detected

CC(=O)Nc1ccc(O)cc1 [acetaminophen, reference compound]
sensitization of liver microtissues by buthionine sulfoximine depletion [7]: induced liver microtissue sensitivity
